Source: patent EP4682145A1, “BENZOHETEROCYCLIC COMPOUND, AND PREPARATION METHOD THEREFOR AND USE THEREOF” (Cascade Pharmaceuticals, Inc., priority 2023, dated 2024)

Biological target: T1, human FFAR1 (GPR40) (Homo sapiens, UniProt O14842)
T1 construct: Flag; expressed in transfected cells; host or cells: HEK293T
Experiment: NFAT-RE-based reporter gene activity assay (Dual-Glo luciferase) for GPR40 agonistic activity in co-transfected HEK293T cells
Assay type: cell-based
Conditions: 4-hour treatment; for Efficacy (%): class symbols
Summary of the method: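 Agonism read as NFAT-RE-driven firefly luciferase over Renilla control (Dual-Glo) after 4 h compound exposure, top concentration 1 µM, 10 half-log steps.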

T1 sequence (O14842 whole entry): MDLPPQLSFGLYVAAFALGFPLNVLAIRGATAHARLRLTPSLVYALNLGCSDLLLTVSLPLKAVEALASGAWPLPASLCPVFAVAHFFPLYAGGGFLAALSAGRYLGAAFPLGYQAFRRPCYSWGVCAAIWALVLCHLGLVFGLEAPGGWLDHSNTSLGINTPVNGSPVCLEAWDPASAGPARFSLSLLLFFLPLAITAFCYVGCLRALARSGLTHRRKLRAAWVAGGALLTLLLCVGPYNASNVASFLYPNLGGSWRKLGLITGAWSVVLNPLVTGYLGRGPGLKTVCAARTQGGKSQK

SMILES	EC50	Efficacy (%)
CC(C)(C)c1ccc(-c2c(C3CCN(c4ccc5c(c4)OCO5)CC3)oc3cc([C@@H](CC(=O)O)C4CC4)ccc23)cc1 [Compound 213]	10 to 100 nM	†† (150 ≥ Efficacy (%) > 100)
CC(C)(C)c1ccc(-c2c(C3CCN(c4ccc5ncoc5c4)CC3)oc3cc(C(CC(=O)O)C4CC4)ccc23)cc1 (stereo not drawn) [Compound 214]	100 to 500 nM	† (100 ≥ Efficacy (%) > 50)
CC(C)(C)c1ccc(-c2c(C3CCN(c4ccc5c(c4)OCCO5)CC3)oc3cc(C(CC(=O)O)C4CC4)ccc23)cc1 (stereo not drawn) [Compound 215]	100 to 500 nM	†† (150 ≥ Efficacy (%) > 100)
COc1ccc(F)c(N2CCC(c3oc4cc([C@H](C5CC5)C(C)C(=O)O)ccc4c3-c3cccc(C(C)(C)C)c3)CC2)c1 (stereo partly drawn) [Compound 217]	10 to 100 nM	†† (150 ≥ Efficacy (%) > 100)
COc1ccc(F)c(N2CCC(c3oc4cc([C@H](C5CC5)C(C)C(=O)O)ccc4c3-c3ccc(C(C)(C)C)cc3)CC2)c1 (stereo partly drawn) [Compound 218]	100 to 500 nM	††† (Efficacy (%) > 150)
COc1ccc(F)c(N2CCC(c3oc4cc([C@H](C5CC5)C(F)C(=O)O)ccc4c3-c3cccc(C(C)(C)C)c3)CC2)c1 (stereo partly drawn) [Compound 219]	10 to 100 nM	† (100 ≥ Efficacy (%) > 50)
COc1ccc(F)c(N2CCC(c3oc4cc([C@H](C5CC5)C(F)C(=O)O)ccc4c3-c3ccc(C(C)(C)C)cc3)CC2)c1 (stereo partly drawn) [Compound 220]	100 to 500 nM	††††
COc1ccc(F)c(N2CCC(c3oc4cc(C(C5CC5)C(C)(C)C(=O)O)ccc4c3-c3ccc(C(C)(C)C)cc3)CC2)c1 (stereo not drawn) [Compound 222]	100 to 500 nM	††† (Efficacy (%) > 150)
COc1ccc(F)c(N2CCC(c3oc4cc(C(CC(=O)O)C5CC5)c(F)cc4c3-c3ccc(C(C)(C)C)cc3)CC2)c1 (stereo not drawn) [Compound 223]	100 to 500 nM	† (100 ≥ Efficacy (%) > 50)
COc1ccc(F)c(N2CCC(c3oc4cc(CCC(=O)O)ccc4c3-c3cccc(C(C)(C)C)c3)CC2)c1 [Compound 231]	100 to 500 nM	† (100 ≥ Efficacy (%) > 50)
COc1ccc(F)c(N2CCC(c3oc4cc(C(C)CC(=O)O)ccc4c3-c3cccc(C(C)(C)C)c3)CC2)c1 (stereo not drawn) [Compound 232]	100 to 500 nM	† (100 ≥ Efficacy (%) > 50)
CCC(CC(=O)O)c1ccc2c(-c3cccc(C(C)(C)C)c3)c(C3CCN(c4cc(OC)ccc4F)CC3)oc2c1 (stereo not drawn) [Compound 233]	100 to 500 nM	†† (150 ≥ Efficacy (%) > 100)
COc1cccc(N2CCC(c3oc4cc([C@@H](CC(=O)O)C5CC5)ccc4c3C(=O)Nc3ccccc3F)CC2)c1 [Compound 234]	≤ 10 nM	†† (150 ≥ Efficacy (%) > 100)
COc1cccc(N2CCC(c3oc4cc(C(CC(=O)O)C5CC5)ccc4c3C(=O)Nc3ccccc3C#N)CC2)c1 (stereo not drawn) [Compound 236]	10 to 100 nM	††† (Efficacy (%) > 150)
COc1cccc(N2CCC(c3oc4cc(C(CC(=O)O)C5CC5)ccc4c3C(=O)Nc3ccccc3C(F)(F)F)CC2)c1 (stereo not drawn) [Compound 237]	10 to 100 nM	†† (150 ≥ Efficacy (%) > 100)
COc1cccc(N2CCC(c3oc4cc([C@@H](CC(=O)O)C5CC5)ccc4c3C(=O)Nc3ccccc3C(F)(F)F)CC2)c1 [Compound 238]	10 to 100 nM	††† (Efficacy (%) > 150)
COc1cccc(N2CCC(c3oc4cc([C@@H](CC(=O)O)C5CC5)ccc4c3C(=O)Nc3ccccc3C)CC2)c1 [Compound 239]	10 to 100 nM	††† (Efficacy (%) > 150)
COc1cccc(N2CCC(c3oc4cc([C@@H](CC(=O)O)C5CC5)ccc4c3C(=O)Nc3ccccc3OC(F)(F)F)CC2)c1 [Compound 240]	100 to 500 nM	†† (150 ≥ Efficacy (%) > 100)
COc1cccc(N2CCC(c3oc4cc([C@@H](CC(=O)O)C5CC5)ccc4c3C(=O)Nc3ccccc3-c3ccccc3)CC2)c1 [Compound 241]	100 to 500 nM	†† (150 ≥ Efficacy (%) > 100)
COc1cccc(N2CCC(c3oc4cc([C@@H](CC(=O)O)C5CC5)ccc4c3C(=O)Nc3cccc(C)c3)CC2)c1 [Compound 242]	100 to 500 nM	†† (150 ≥ Efficacy (%) > 100)
CCc1cccc(NC(=O)c2c(C3CCN(c4cccc(OC)c4)CC3)oc3cc(C(CC(=O)O)C4CC4)ccc23)c1 (stereo not drawn) [Compound 243]	> 500 nM	†† (150 ≥ Efficacy (%) > 100)
COc1cccc(NC(=O)c2c(C3CCN(c4cccc(OC)c4)CC3)oc3cc(C(CC(=O)O)C4CC4)ccc23)c1 (stereo not drawn) [Compound 245]	100 to 500 nM	†† (150 ≥ Efficacy (%) > 100)
COc1cccc(N2CCC(c3oc4cc(C(CC(=O)O)C5CC5)ccc4c3C(=O)Nc3cccc(N(C)C)c3)CC2)c1 (stereo not drawn) [Compound 246]	100 to 500 nM	†† (150 ≥ Efficacy (%) > 100)
COc1cccc(N2CCC(c3oc4cc(C(CC(=O)O)C5CC5)ccc4c3C(=O)Nc3cccc(Br)c3)CC2)c1 (stereo not drawn) [Compound 247]	100 to 500 nM	††† (Efficacy (%) > 150)

SMILES	EC50	Efficacy (%)
COc1cccc(N2CCC(c3oc4cc(C(CC(=O)O)C5CC5)ccc4c3C(=O)Nc3cccc(Cl)c3)CC2)c1 (stereo not drawn) [Compound 248]	100 to 500 nM	†† (150 ≥ Efficacy (%) > 100)
COc1cccc(N2CCC(c3oc4cc(C(CC(=O)O)C5CC5)ccc4c3C(=O)Nc3cccc(C#N)c3)CC2)c1 (stereo not drawn) [Compound 249]	100 to 500 nM	†† (150 ≥ Efficacy (%) > 100)
COc1cccc(N2CCC(c3oc4cc(C(CC(=O)O)C5CC5)ccc4c3C(=O)Nc3cccc(C)c3F)CC2)c1 (stereo not drawn) [Compound 250]	100 to 500 nM	†† (150 ≥ Efficacy (%) > 100)
COc1cccc(N2CCC(c3oc4cc(C(CC(=O)O)C5CC5)ccc4c3C(=O)Nc3ccc(C)cc3F)CC2)c1 (stereo not drawn) [Compound 251]	100 to 500 nM	†† (150 ≥ Efficacy (%) > 100)
COc1cccc(N2CCC(c3oc4cc(C(CC(=O)O)C5CC5)ccc4c3C(=O)Nc3c(C)cccc3F)CC2)c1 (stereo not drawn) [Compound 252]	100 to 500 nM	†† (150 ≥ Efficacy (%) > 100)
COc1cccc(N2CCC(c3oc4cc([C@@H](CC(=O)O)C5CC5)ccc4c3C(=O)Nc3cc(C)ccc3F)CC2)c1 [Compound 253]	≤ 10 nM	††† (Efficacy (%) > 150)
COc1cccc(N2CCC(c3oc4cc(C(CC(=O)O)C5CC5)ccc4c3C(=O)Nc3cccc(F)c3F)CC2)c1 (stereo not drawn) [Compound 254]	100 to 500 nM	††† (Efficacy (%) > 150)
COc1cccc(N2CCC(c3oc4cc(C(CC(=O)O)C5CC5)ccc4c3C(=O)Nc3ccc(F)cc3F)CC2)c1 (stereo not drawn) [Compound 255]	100 to 500 nM	†† (150 ≥ Efficacy (%) > 100)
COc1cccc(N2CCC(c3oc4cc(C(CC(=O)O)C5CC5)ccc4c3C(=O)Nc3c(F)cccc3F)CC2)c1 (stereo not drawn) [Compound 256]	100 to 500 nM	††† (Efficacy (%) > 150)
COc1cccc(N2CCC(c3oc4cc([C@@H](CC(=O)O)C5CC5)ccc4c3C(=O)Nc3cc(F)ccc3F)CC2)c1 [Compound 257]	≤ 10 nM	††† (Efficacy (%) > 150)
COc1cccc(N2CCC(c3oc4cc(C(CC(=O)O)C5CC5)ccc4c3C(=O)Nc3cccc(OC)c3F)CC2)c1 (stereo not drawn) [Compound 258]	100 to 500 nM	††† (Efficacy (%) > 150)
COc1cccc(N2CCC(c3oc4cc(C(CC(=O)O)C5CC5)ccc4c3C(=O)Nc3c(F)cccc3OC)CC2)c1 (stereo not drawn) [Compound 259]	> 500 nM	†† (150 ≥ Efficacy (%) > 100)
COc1cccc(N2CCC(c3oc4cc([C@@H](CC(=O)O)C5CC5)ccc4c3C(=O)Nc3cc(OC)ccc3F)CC2)c1 [Compound 260]	10 to 100 nM	††† (Efficacy (%) > 150)
COc1cccc(N2CCC(c3oc4cc([C@@H](CC(=O)O)C5CC5)ccc4c3C(=O)Nc3cc(C(F)(F)F)ccc3F)CC2)c1 [Compound 261]	≤ 10 nM	††† (Efficacy (%) > 150)
COc1cccc(N2CCC(c3oc4cc([C@@H](CC(=O)O)C5CC5)ccc4c3C(=O)Nc3cc(OC(F)(F)F)ccc3F)CC2)c1 [Compound 262]	< 10 nM	†† (150 ≥ Efficacy (%) > 100)
COc1cccc(N2CCC(c3oc4cc(C(CC(=O)O)C5CC5)ccc4c3C(=O)Nc3c(F)cccc3C(F)(F)F)CC2)c1 (stereo not drawn) [Compound 263]	100 to 500 nM	†† (150 ≥ Efficacy (%) > 100)
COc1cccc(N2CCC(c3oc4cc(C(CC(=O)O)C5CC5)ccc4c3C(=O)Nc3c(F)cccc3Br)CC2)c1 (stereo not drawn) [Compound 264]	100 to 500 nM	†† (150 ≥ Efficacy (%) > 100)
COc1cccc(N2CCC(c3oc4cc([C@@H](CC(=O)O)C5CC5)ccc4c3C(=O)Nc3cc(C)ccc3Cl)CC2)c1 [Compound 265]	≤ 10 nM	††† (Efficacy (%) > 150)
COc1cccc(N2CCC(c3oc4cc([C@@H](CC(=O)O)C5CC5)ccc4c3C(=O)Nc3cc(F)ccc3Cl)CC2)c1 [Compound 266]	< 10 nM	††††
COc1cccc(N2CCC(c3oc4cc([C@@H](CC(=O)O)C5CC5)ccc4c3C(=O)Nc3cc(Cl)ccc3Cl)CC2)c1 [Compound 267]	≤ 10 nM	††† (Efficacy (%) > 150)
COc1cccc(N2CCC(c3oc4cc([C@@H](CC(=O)O)C5CC5)ccc4c3C(=O)Nc3cc(OC)ccc3Cl)CC2)c1 [Compound 268]	≤ 10 nM	†† (150 ≥ Efficacy (%) > 100)
COc1cccc(N2CCC(c3oc4cc([C@@H](CC(=O)O)C5CC5)ccc4c3C(=O)Nc3cc(C)ccc3C)CC2)c1 [Compound 269]	10 to 100 nM	††† (Efficacy (%) > 150)
COc1cccc(N2CCC(c3oc4cc([C@@H](CC(=O)O)C5CC5)ccc4c3C(=O)Nc3cc(Cl)ccc3F)CC2)c1 [Compound 270]	10 to 100 nM	††††
COc1cccc(N2CCC(c3oc4cc([C@@H](CC(=O)O)C5CC5)ccc4c3C(=O)Nc3cc(F)ccc3Br)CC2)c1 [Compound 271]	≤ 10 nM	††† (Efficacy (%) > 150)
